In the NIST ThermoML archive (doi:10.1021/je500433d):
Several values for one entry are separate records, joined by “and”; a condition that tells them apart may be missing. Equal entries are not always repeated.

Settings: Liquid, Alternating current cell with electrodes

[Cl][Pb][Cl] [lead(2+) dichloride]
Settings	electrical conductivity [S/m]
783.15 K	150
800.15 K	159
824.15 K	170
854.15 K	185
883.15 K	197
913.15 K	210
943.15 K	221
972.15 K	233
1001.1 K	244
1030.2 K	254
1058.2 K	263
1090.2 K	272
1118.2 K	279
1149.2 K	286
1177.2 K	292
1210.2 K	298
1230.2 K	302
1254.2 K	309
1279.2 K	315
1297.2 K	318
1320.2 K	321

[Cl-].[Cl-].[Zn+2] [zinc chloride]
Settings	electrical conductivity
558.15 K	0.0363 S/m
568.15 K	0.0568 S/m
578.15 K	0.0874 S/m
588.15 K	0.131 S/m
598.15 K	0.179 S/m
618.15 K	0.36 S/m
638.15 K	0.646 S/m
681.15 K	1.86 S/m
717.15 K	3.93 S/m
739.15 K	5.57 S/m
756.65 K	7.13 S/m
814.65 K	14.4 S/m
814.95 K	14.4 S/m
858.65 K	21.9 S/m
879.15 K	26.3 S/m
893.15 K	28.8 S/m
936.15 K	38.8 S/m
970.15 K	47 S/m
974.65 K	48.1 S/m
981.15 K	49.8 S/m
1005.1 K	55.4 S/m
1030.2 K	61.4 S/m
1062.2 K	69.2 S/m
1078.2 K	73.5 S/m and 74.2 S/m
1092.2 K	76.8 S/m
1100.2 K	79.2 S/m
1110.2 K	81.2 S/m
1114.2 K	82.8 S/m
1128.2 K	85.7 S/m
1131.2 K	87.1 S/m
1143.2 K	89 S/m
1144.7 K	90.3 S/m
1163.2 K	93.5 S/m
1167.2 K	95.9 S/m
1183.7 K	100 S/m
1195.7 K	103 S/m
1214.2 K	107 S/m
1225.2 K	110 S/m
1236.2 K	113 S/m
1245.7 K	115 S/m
1259.7 K	118 S/m
1279.7 K	122 S/m
1297.2 K	126 S/m
1306.2 K	127 S/m
1316.7 K	129 S/m
1324.2 K	131 S/m
1341.7 K	134 S/m
1350.2 K	135 S/m
1359.7 K	137 S/m
1376.7 K	139 S/m
1386.7 K	141 S/m
1399.2 K	142 S/m
1406.2 K	143 S/m
1414.2 K	144 S/m
1421.2 K	145 S/m

[Be+2].[Cl-].[Cl-] [beryllium chloride]
Settings	electrical conductivity [S/m]
693.15 K	74.7
695.15 K	80.5
698.65 K	87.7
701.65 K	96.1
705.65 K	107
711.65 K	132
714.65 K	143
719.65 K	165
721.65 K	174
724.65 K	186
726.15 K	193
728.15 K	202
735.65 K	253
738.15 K	270
739.65 K	288
741.65 K	297
744.65 K	327
746.15 K	335
747.15 K	348
750.15 K	376
752.15 K	398
755.15 K	437
759.65 K	454
761.15 K	488
763.15 K	505
765.15 K	531
766.35 K	545
767.35 K	572
770.15 K	610
772.85 K	636
775.15 K	670
777.65 K	707
781.65 K	730
783.65 K	763
786.15 K	824
787.15 K	836
788.15 K	851
790.15 K	887
793.15 K	935
795.15 K	954
795.65 K	966
797.15 K	1010
801.65 K	1090
807.65 K	1160
809.65 K	1180
822.65 K	1390
